Reference: ChEMBL document CHEMBL5291721, “A preclinical secondary pharmacology resource illuminates target-adverse drug reaction associations of marketed drugs” (Nat Commun, 2023)

Assays:
[1] = target: Adenosine receptor A2a (Homo sapiens, UniProt P29274)
[2] = target: T1, 5-hydroxytryptamine receptor 1A (Homo sapiens, UniProt P08908); type: functional, cell-based
T1 sequence (P08908 whole entry): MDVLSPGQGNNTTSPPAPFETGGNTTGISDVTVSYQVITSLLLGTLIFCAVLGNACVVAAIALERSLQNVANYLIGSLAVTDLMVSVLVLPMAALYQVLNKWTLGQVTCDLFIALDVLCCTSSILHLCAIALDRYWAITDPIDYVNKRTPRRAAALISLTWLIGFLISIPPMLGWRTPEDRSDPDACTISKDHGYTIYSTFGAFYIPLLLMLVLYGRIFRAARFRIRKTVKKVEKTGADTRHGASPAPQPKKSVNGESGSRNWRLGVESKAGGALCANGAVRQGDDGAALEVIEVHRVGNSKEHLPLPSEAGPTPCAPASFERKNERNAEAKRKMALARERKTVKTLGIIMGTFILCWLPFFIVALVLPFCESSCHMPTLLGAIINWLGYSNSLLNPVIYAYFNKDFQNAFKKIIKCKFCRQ

[3] = target: D(1A) dopamine receptor (Homo sapiens, UniProt P21728); type: functional, cell-based
D(1A) dopamine receptor, sequence (P21728 whole entry): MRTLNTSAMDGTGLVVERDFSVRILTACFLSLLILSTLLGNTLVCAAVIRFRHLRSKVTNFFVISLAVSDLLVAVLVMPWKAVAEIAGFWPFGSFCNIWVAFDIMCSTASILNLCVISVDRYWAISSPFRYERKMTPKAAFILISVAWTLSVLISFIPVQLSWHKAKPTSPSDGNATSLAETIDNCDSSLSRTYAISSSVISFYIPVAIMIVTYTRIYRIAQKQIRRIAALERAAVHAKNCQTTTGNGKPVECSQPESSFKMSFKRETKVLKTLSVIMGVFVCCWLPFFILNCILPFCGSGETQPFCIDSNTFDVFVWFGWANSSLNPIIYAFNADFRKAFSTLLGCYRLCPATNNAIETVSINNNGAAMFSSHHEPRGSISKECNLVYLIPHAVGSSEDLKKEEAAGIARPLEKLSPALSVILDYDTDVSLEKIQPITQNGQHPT

[4] = target: T2, Alpha-2A adrenergic receptor (Homo sapiens, UniProt P08913); type: functional, cell-based
T2 sequence (P08913 whole entry): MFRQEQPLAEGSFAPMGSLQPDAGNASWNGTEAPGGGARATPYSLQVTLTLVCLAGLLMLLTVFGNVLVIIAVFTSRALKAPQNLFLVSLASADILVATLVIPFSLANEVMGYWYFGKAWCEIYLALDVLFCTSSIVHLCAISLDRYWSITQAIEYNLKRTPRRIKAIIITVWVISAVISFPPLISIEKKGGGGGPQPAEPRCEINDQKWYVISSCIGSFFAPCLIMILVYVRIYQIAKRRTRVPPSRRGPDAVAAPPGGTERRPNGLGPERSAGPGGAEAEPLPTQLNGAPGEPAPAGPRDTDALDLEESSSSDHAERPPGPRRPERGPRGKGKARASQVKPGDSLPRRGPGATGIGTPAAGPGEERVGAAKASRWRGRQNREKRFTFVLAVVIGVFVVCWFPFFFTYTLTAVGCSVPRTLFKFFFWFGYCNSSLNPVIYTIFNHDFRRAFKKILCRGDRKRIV

[5] = target: 5-hydroxytryptamine receptor 2B (Homo sapiens, UniProt P41595); type: functional, cell-based
5-hydroxytryptamine receptor 2B, sequence (P41595 whole entry): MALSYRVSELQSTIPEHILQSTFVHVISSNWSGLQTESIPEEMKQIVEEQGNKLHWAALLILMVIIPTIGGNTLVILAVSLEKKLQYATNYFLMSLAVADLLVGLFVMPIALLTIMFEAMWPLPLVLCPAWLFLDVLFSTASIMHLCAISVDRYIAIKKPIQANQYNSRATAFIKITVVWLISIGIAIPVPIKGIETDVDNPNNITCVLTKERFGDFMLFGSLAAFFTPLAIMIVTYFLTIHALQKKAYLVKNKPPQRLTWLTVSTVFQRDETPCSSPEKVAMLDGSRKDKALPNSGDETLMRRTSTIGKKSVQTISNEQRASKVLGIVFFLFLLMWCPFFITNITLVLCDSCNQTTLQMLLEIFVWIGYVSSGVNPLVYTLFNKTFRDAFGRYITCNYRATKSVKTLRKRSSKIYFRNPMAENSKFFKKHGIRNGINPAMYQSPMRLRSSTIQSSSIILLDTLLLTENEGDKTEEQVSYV

[6] = target: Growth hormone secretagogue receptor type 1 (Homo sapiens, UniProt Q92847)
Growth hormone secretagogue receptor type 1, sequence (Q92847 whole entry): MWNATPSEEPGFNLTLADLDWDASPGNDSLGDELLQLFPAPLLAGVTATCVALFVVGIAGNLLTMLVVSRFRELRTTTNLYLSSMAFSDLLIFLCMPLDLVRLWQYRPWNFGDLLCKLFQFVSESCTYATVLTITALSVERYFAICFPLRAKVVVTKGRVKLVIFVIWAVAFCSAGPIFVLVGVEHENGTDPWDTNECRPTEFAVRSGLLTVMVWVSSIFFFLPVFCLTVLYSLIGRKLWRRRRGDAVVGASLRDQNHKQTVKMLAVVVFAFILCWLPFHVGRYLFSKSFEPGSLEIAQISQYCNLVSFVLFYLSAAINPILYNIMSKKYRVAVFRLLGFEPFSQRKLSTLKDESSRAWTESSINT

[7] = target: Gamma-aminobutyric acid receptor subunit alpha-1 (Rattus norvegicus, UniProt P62813); type: functional
Gamma-aminobutyric acid receptor subunit alpha-1, sequence (P62813 whole entry): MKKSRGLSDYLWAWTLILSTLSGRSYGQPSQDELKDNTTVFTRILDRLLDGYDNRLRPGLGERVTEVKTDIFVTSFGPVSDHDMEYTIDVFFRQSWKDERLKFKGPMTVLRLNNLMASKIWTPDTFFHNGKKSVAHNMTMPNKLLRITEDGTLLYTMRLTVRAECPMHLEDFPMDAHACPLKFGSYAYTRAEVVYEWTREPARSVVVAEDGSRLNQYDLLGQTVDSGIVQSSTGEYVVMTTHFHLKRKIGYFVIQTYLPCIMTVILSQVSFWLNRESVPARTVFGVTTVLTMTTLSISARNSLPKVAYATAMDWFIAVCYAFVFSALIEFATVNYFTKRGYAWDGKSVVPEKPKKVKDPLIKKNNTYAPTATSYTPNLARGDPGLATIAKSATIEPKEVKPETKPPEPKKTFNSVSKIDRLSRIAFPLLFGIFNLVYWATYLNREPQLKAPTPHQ

[8] = target: T3, Cholecystokinin receptor type A (Homo sapiens, UniProt P32238)
T3 sequence (P32238 whole entry): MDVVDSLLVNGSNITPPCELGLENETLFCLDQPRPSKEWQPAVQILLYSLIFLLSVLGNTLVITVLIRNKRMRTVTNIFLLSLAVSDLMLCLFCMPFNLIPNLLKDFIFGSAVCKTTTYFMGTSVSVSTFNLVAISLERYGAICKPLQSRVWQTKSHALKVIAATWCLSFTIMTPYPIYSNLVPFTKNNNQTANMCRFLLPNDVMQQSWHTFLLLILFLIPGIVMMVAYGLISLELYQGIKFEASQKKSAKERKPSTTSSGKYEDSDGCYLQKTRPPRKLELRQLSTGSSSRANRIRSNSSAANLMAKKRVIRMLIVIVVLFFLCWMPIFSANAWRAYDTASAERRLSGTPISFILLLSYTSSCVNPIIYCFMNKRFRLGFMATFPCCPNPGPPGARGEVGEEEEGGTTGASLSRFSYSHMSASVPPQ

[9] = target: T4, Equilibrative nucleoside transporter 1 (Homo sapiens, UniProt Q99808)
T4 sequence (Q99808 whole entry): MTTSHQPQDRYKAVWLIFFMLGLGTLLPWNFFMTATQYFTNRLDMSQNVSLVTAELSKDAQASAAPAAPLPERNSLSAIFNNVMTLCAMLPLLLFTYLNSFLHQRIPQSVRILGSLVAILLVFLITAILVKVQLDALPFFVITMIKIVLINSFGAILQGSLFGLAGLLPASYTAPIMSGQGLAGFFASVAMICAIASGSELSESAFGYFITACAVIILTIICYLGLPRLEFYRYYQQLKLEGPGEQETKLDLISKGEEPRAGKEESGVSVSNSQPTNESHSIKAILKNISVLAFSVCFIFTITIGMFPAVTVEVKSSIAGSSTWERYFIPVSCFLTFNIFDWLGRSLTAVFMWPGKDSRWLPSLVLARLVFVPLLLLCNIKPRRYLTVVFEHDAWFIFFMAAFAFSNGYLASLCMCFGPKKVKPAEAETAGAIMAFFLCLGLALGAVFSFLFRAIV

[10] = target: T5, 5-hydroxytryptamine receptor 2C (Homo sapiens, UniProt P28335)
T5 sequence (P28335 whole entry): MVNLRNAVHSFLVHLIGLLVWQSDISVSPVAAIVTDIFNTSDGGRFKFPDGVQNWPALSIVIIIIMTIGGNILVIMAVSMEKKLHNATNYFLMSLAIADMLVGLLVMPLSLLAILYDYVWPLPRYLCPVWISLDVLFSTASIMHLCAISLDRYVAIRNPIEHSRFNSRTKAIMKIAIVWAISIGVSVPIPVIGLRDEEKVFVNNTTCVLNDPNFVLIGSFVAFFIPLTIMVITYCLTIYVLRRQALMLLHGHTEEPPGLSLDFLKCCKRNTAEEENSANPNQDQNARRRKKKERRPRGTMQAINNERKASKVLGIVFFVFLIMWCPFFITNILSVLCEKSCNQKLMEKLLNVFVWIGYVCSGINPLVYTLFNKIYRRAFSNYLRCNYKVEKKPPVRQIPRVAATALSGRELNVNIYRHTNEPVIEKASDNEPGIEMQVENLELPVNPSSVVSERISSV
Note: assay procedure not described here.

Adenosine receptor A2a, sequence (P29274 whole entry): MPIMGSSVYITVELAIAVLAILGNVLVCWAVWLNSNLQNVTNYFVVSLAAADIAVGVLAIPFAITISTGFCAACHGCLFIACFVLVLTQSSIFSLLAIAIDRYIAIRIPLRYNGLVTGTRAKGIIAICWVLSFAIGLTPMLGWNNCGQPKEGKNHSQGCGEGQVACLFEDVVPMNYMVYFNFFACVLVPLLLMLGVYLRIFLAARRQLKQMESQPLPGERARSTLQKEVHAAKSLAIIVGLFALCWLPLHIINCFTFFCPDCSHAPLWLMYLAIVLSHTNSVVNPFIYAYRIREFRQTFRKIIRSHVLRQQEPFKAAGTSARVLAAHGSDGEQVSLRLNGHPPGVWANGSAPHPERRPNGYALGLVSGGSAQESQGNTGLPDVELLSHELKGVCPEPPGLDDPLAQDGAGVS

SMILES	AC50 [1]	AC50 [2]	AC50 [3]	AC50 [4]	AC50 [5]	AC50 [6]	AC50 [7]	AC50 [8]	AC50 [9]	AC50 [10]
CCOCC(O)COc1ccc(NC(=O)CC[S+](C)C)cc1 (stereo not given)	> 30 µM	> 30 µM	> 30 µM	> 30 µM	> 30 µM	> 30 µM	> 30 µM	> 30 µM	> 30 µM	> 30 µM
O=C(c1ccccc1)c1ccc2n1CCC2C(=O)O (stereo not given) [KETOROLAC]	> 10 µM	> 30 µM	> 30 µM	> 30 µM	> 30 µM	> 10 µM	> 30 µM	> 10 µM	> 10 µM	> 30 µM
NCC1(CC(=O)O)CCCCC1 [GABAPENTIN]	> 30 µM	> 30 µM	> 30 µM	> 30 µM	> 30 µM	> 30 µM	> 30 µM	> 30 µM	> 30 µM	> 30 µM
CN(C)CCc1c[nH]c2ccc(CS(=O)(=O)N3CCCC3)cc12 [ALMOTRIPTAN]	> 30 µM	25 µM	> 30 µM	> 30 µM	> 30 µM	> 30 µM	> 30 µM	> 30 µM	> 30 µM	> 30 µM
C[C@]12CCC(=O)C=C1CC[C@H]1[C@@H]3CC[C@](O)(C(=O)CO)[C@@]3(C)C[C@H](O)[C@@]12F [FLUDROCORTISONE]	> 30 µM	> 10 µM	> 10 µM	> 10 µM	> 10 µM	> 30 µM	> 10 µM	> 30 µM	> 30 µM	> 30 µM
Cn1cnc2c(F)c(Nc3ccc(Br)cc3F)c(C(=O)NOCCO)cc21 [BINIMETINIB]	> 30 µM	> 30 µM	> 30 µM	> 30 µM	> 30 µM	> 30 µM	> 30 µM	> 30 µM	> 30 µM	> 30 µM
